Holding throughout (format): biochemical
For assay [1], the target named is T1, CDK4/cyclin D3 (Homo sapiens, UniProt P11802).
T1 construct: purchased Carna Biosciences, Inc. QS S Assist CDK4/Cyclin D3_FP Kit
As to the kind of experiment: Human CDK4/cyclin D3 inhibitory activity (QS S Assist CDK4/Cyclin D3_FP Kit, IMAP fluorescence polarization). In short, it runs like this:
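Percent inhibition, relative to DMSO with and without enzyme, was curve-fitted to give IC50 from polarization (ex 485, em 535 nm). The 45-min room-temperature reaction used 12.5-25 ng/well enzyme, kit ATP/substrate/metal mix, and HEPES pH 7.4 buffer with Tween20 and DTT, followed by 30-min IMAP binding in the dark.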
(In general: Polarisation of emitted light reports the rotation of a fluorescent probe.)

For assay [2], the target named is T2, CDK2/cyclin A2 (Homo sapiens, UniProt P24941).
T2 construct: purchased Carna Biosciences, Inc. QS S Assist CDK2/Cyclin A2_FP Kit
As to the kind of experiment: Human CDK2/cyclin A2 inhibitory activity (QS S Assist CDK2/Cyclin A2_FP Kit, IMAP fluorescence polarization). Summed up: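 Kinase activity read as fluorescence polarization (485/535 nm) after phosphorylated fluorescent substrate binds IMAP reagent (30 min, RT, dark). Enzyme (2.5 ng/well) reacted 60 min at RT with ATP/substrate/metal in HEPES pH 7.4 buffer with Tween 20 and DTT; no-enzyme wells define 0% activity; IC50 by curve fit.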

The target of assay [3] is CDK6/cyclin D3 (Homo sapiens, UniProt Q00534). Put plainly: Human CDK6/cyclin D3 inhibitory activity (off-chip mobility shift assay). As to conditions: 50% inhibitory concentration against CDK6/cyclin D3; 300 μM ATP, room temperature, five hours; read-out: CDK6 Activity Symbol. On the procedure: Human CDK6/Cyclin D3 Inhibitory Activity
Chain of CDK6/cyclin D3 (Q00534 whole entry): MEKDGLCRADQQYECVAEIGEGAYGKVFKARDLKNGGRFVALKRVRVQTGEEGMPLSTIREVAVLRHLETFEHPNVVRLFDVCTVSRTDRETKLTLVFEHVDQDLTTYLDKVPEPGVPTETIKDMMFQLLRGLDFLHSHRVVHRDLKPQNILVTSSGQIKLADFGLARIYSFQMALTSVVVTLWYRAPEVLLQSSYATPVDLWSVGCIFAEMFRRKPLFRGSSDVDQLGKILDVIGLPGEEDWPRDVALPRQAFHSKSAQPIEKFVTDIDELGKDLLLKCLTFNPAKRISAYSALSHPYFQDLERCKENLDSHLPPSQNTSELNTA
Chain of CDK6/cyclin D3 (P30281 whole entry partner): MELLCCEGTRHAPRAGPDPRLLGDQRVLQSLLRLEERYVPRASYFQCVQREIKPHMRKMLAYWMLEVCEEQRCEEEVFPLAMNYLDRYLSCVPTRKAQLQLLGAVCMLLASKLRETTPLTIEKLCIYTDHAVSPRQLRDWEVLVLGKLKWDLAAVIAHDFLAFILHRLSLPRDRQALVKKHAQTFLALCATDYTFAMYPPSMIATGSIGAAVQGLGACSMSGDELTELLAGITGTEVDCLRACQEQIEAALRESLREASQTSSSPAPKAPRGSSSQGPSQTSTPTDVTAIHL
CDK6/cyclin D3 inhibitory activity was determined by the off-chip mobility shift assay (MSA). The MSA separates proteins from one another on the basis of a difference in electrophoretic mobility depending on the molecular weight or electric charge of the proteins. The kinase activity is determined by quantifying the degree of phosphorylation through electrophoretic analysis of a positive to negative change in electric charge of the substrate phosphorylated by the kinase.
Each solution was prepared with an assay buffer containing 20 mM HEPES (pH 7.5), 0.01% Triton X-100, and 2 mM dithiothreitol. A test compound solution was prepared by dilution of the test compound with dimethyl sulfoxide (DMSO) to a concentration 100 times higher than the final concentration and then 25-fold dilution with the assay buffer to a concentration four times higher than the final concentration. An ATP/substrate/metal solution was prepared to have a concentration four times higher than the final concentration. An enzyme solution was prepared to have a concentration twice higher than the final concentration. The final enzyme concentration was adjusted to an appropriate level on the basis of the enzyme activity signal and the inhibitory activity of a positive control compound.
The test compound solution (5 μL/well) and the ATP/substrate/metal solution (5 μL/well) were added to a 384-well plate, and the enzyme solution or the assay buffer (10 μL/well) was added to the plate (total amount of the reaction mixture: 20 μL/well) for initiation of enzymatic reaction. […] The reaction was performed at room temperature for five hours, and a termination buffer (QuickScout Screening Assist MSA, manufactured by Carna Biosciences, Inc.) (60 μL/well) was then added to the plate for termination of the reaction. Subsequently, the substrate peptide and the phosphorylated peptide in the reaction mixture were separated from each other and quantified with LabChip 3000 (manufactured by Caliper Lifesciences). The kinase reaction was evaluated by the product ratio (P/(P+S)) calculated from the peak height (S) of the substrate peptide and the peak height (P) of the phosphorylated peptide.
The percent inhibition of enzyme activity was calculated for each test compound (note: enzyme activity=100% in the case of addition of the enzyme solution and addition of DMSO instead of the test compound solution, whereas enzyme activity=0% in the case of addition of the assay buffer instead of the enzyme solution and addition of DMSO instead of the test compound solution). The percent inhibition of enzyme activity was fitted to a dose-response curve, to determine a 50% inhibitory concentration against CDK6/cyclin D3.
In each table, “+++” corresponds to IC50<10 nM, “++” 10 nM≤IC50<100 nM, and “+” 100 nM≤IC50.

The mark [4] stands for this setting: 50% inhibitory concentration against CDK4/cyclin D3, given as class symbol.
[5] abbreviates: 50% inhibitory concentration against CDK2/cyclin A2, given as class symbol.
The mark [6] stands for this setting: Human CDK4/cyclin D3 inhibitory activity, read-out: CDK4 Activity symbol.
[7] abbreviates: Human CDK2/cyclin A2 inhibitory activity, read-out: CDK2 Activity symbol.

Like-named read-outs stand apart in the source and are kept apart here.

From patent US10124004B2, “Pyrido[3,4-d]pyrimidine derivative and pharmaceutically acceptable salt thereof” (Teijin Pharma Limited, priority 2015, dated 2018) come the findings set out here.

T1 sequence (P11802 whole entry): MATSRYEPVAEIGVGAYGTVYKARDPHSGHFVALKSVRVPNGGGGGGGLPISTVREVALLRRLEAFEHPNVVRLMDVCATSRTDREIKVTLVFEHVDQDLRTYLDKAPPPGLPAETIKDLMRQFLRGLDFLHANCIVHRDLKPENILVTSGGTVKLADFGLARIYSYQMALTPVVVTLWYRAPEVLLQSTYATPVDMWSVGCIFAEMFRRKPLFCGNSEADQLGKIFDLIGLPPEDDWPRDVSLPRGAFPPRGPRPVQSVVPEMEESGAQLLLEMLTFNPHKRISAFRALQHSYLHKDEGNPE
T1 sequence (P30281 whole entry partner): as the sequence (P30281 whole entry partner) above

On to `CC(C)Nc1nc(C2CCCO2)cc2cnc(Nc3ccc(N4CCNCC4=O)cn3)nc12` (single isomer, unassigned) [Compound 672], for which the IC50 in assay [1] (setting [4]) is < 10 nM; in assay [2] (setting [5]) it was ≥ 100 nM; in assay [3] it was 10 to 100 nM.
In the case of `c1cc(N2CCNCC2)nnc1Nc1ncc2cc(C3CCOC3)nc(N[C@H]3CCCOC3)c2n1` (single isomer, unassigned) [Compound 938], the IC50 is < 10 nM in assay [1] (setting [4]), ≥ 100 nM in assay [2] (setting [5]) and 10 to 100 nM in assay [3].
`c1cc(Nc2ncc3cc(C4CCOC4)nc(N[C@H]4CCCOC4)c3n2)ncc1CN1CCNCC1` (single isomer, unassigned) [Compound 941]: the IC50 was < 10 nM in assay [1] (setting [4]), ≥ 100 nM in assay [2] (setting [5]) and < 10 nM in assay [3].
Take `CC(C)Nc1nc(C(F)F)cc2cnc(Nc3ccc(N4CCNCC4)cn3)nc12` [Compound 3, 6-difluoromethyl-8-isopropyl-2-(5-piperazin-1-ylpyridin-2-yl)pyrido[3,4-d]pyrimidine-2,8-diamine]: in assay [3], the IC50 was < 10 nM.
For the molecule `CC(C)Nc1nc([C@@H](C)O)cc2cnc(Nc3ccc(N4CCNCC4)cn3)nc12` [Compound 16], the IC50 is < 10 nM in assay [1] (setting [6]), ≥ 100 nM in assay [2] (setting [7]) and < 10 nM in assay [3].
For the molecule `CO[C@H](C)c1cc2cnc(Nc3ccc(N4CCNCC4)nn3)nc2c(NC(C)C)n1` [Compound 217, (R)—N8-isopropyl-6-(1-methoxyethyl)-N2-(6-(piperazin-1-yl)pyridazin-3-yl)pyrido[3,4-d]pyrimidine-2,8-diamine], the figures for the IC50 in assay [1] (setting [6]), in assay [2] (setting [7]) and in assay [3] were < 10 nM, ≥ 100 nM and 10 to 100 nM, respectively.
Take `CO[C@H](C)c1cc2cnc(Nc3ccc(CN4CCNCC4)cn3)nc2c(NC(C)C)n1` [Compound 220]: the IC50 is < 10 nM in assay [1] (setting [6]), ≥ 100 nM in assay [2] (setting [7]) and 10 to 100 nM in assay [3].
The corresponding values for `COCC(C)(C)Nc1nc([C@@H](C)O)cc2cnc(Nc3ccc(CN4CCNCC4)cn3)nc12` [Compound 221] are < 10 nM, ≥ 100 nM and 10 to 100 nM.
On the same counts, the results for `CC(C)Nc1nc([C@@H](C)O)cc2cnc(Nc3ccc(N4CCNCC4=O)cn3)nc12` [Compound 230] are < 10 nM, ≥ 100 nM and < 10 nM.
`CO[C@H](C)c1cc2cnc(Nc3ccc(CN4CCNCC4)cn3)nc2c(N[C@H]2CCCOC2)n1` [Compound 300]: the IC50 is < 10 nM in assay [1] (setting [6]), ≥ 100 nM in assay [2] (setting [7]) and 10 to 100 nM in assay [3].
In the case of `CO[C@H](C)c1cc2cnc(Nc3ccc(N4CCNCC4)nn3)nc2c(N[C@H]2CCCOC2)n1` [Compound 304], the IC50 in assay [1] (setting [6]) was < 10 nM; in assay [2] (setting [7]) it was ≥ 100 nM; in assay [3], 10 to 100 nM.
For `CO[C@H](C)c1cc2cnc(Nc3cnc(N4CCNCC4)cn3)nc2c(NC(C)C)n1` [Compound 363], the IC50 was < 10 nM in assay [1] (setting [6]), ≥ 100 nM in assay [2] (setting [7]) and 10 to 100 nM in assay [3].
With `Cc1nc(Nc2ncc3cc([C@@H](C)O)nc(NC(C)C)c3n2)ccc1N1CCNCC1=O` [Compound 749], the IC50 is < 10 nM in assay [1] (setting [4]), ≥ 100 nM in assay [2] (setting [5]) and 10 to 100 nM in assay [3].
For the molecule `C[C@@H](O)c1cc2cnc(Nc3ccc4c(n3)CCNC4)nc2c(N[C@H]2CCCOC2)n1` [Compound 778], the IC50 in assay [1] (setting [4]) was < 10 nM; in assay [2] (setting [5]) it was ≥ 100 nM; in assay [3], 10 to 100 nM.
On the same counts, the results for `CC(C)Nc1nc(C2(C)COC2)cc2cnc(Nc3ccc(N4CCNCC4=O)cn3)nc12` [Compound 779] are < 10 nM, ≥ 100 nM and < 10 nM.
For `CCCNc1nc([C@@H](C)OC)cc2cnc(Nc3ccc(CN4CCNCC4)cn3)nc12` [Compound 818], the values for the IC50 in assay [1] (setting [4]), in assay [2] (setting [5]) and in assay [3] were < 10 nM, ≥ 100 nM and 10 to 100 nM, respectively.
In the case of `CCCNc1nc([C@@H](C)OC)cc2cnc(Nc3ccc(N4CCNCC4)nn3)nc12` [Compound 819], the IC50 in assay [1] (setting [4]) is < 10 nM; in assay [2] (setting [5]), ≥ 100 nM; in assay [3], 10 to 100 nM.
For the molecule `CCNc1nc([C@@H](C)O)cc2cnc(Nc3ccc(CN4CCN(CCO)CC4)cn3)nc12` [Compound 843], the values for the IC50 in assay [1] (setting [4]), in assay [2] (setting [5]) and in assay [3] were < 10 nM, ≥ 100 nM and 10 to 100 nM, respectively.
As to `CCNc1nc([C@@H](C)O)cc2cnc(Nc3ccc(CN4CCCN(CCO)CC4)cn3)nc12` [Compound 1216], the IC50 was < 10 nM in assay [1] (setting [4]) and ≥ 100 nM in assay [2] (setting [5]).
The corresponding values for `CC(C)Nc1nc([C@H](C)O)cc2cnc(Nc3ccc(N4CCNCC4=O)cn3)nc12` [Compound 1217] are 10 to 100 nM and ≥ 100 nM.
On the same counts, the results for `C[C@@H](O)c1cc2cnc(Nc3ccc(N4CCCC(C(=O)O)C4)nn3)nc2c(N[C@H]2CC[C@H](O)CC2)n1` (some centres unmarked) [Compound 1218] are < 10 nM and ≥ 100 nM.
In the case of `CC(C)Nc1nc([C@@H](C)O)cc2cnc(Nc3ccc(N4CCC(N(C)C)C4)nn3)nc12` (some centres unmarked) [Compound 1219], the IC50 is < 10 nM in assay [1] (setting [4]) and ≥ 100 nM in assay [2] (setting [5]).
With `CC(C)Nc1nc([C@@H](C)O)cc2cnc(Nc3ccc(N4CCCC(N(C)C)C4)nn3)nc12` (some centres unmarked) [Compound 1220], the IC50 was < 10 nM in assay [1] (setting [4]) and ≥ 100 nM in assay [2] (setting [5]).
`CCCNc1nc([C@@H](C)O)cc2cnc(Nc3ccc(C(=O)N4CCN(C)CC4)cn3)nc12` [Compound 1221]: the IC50 in assay [1] (setting [4]) is < 10 nM; in assay [2] (setting [5]), ≥ 100 nM.
Consider `CCNc1nc([C@@H](C)O)cc2cnc(Nc3ccc(CN4CC5CCC(C4)N5C)cn3)nc12` [Compound 1222], for which the results for the IC50 in assay [1] (setting [4]) and in assay [2] (setting [5]) were < 10 nM and ≥ 100 nM, respectively.
For the molecule `CCCNc1nc([C@@H](C)O)cc2cnc(Nc3ccc(CN4CC5CCC(C4)N5C)cn3)nc12` [Compound 1223], the figures for the IC50 in assay [1] (setting [4]) and in assay [2] (setting [5]) were < 10 nM and ≥ 100 nM, respectively.
Regarding `CC(C)Nc1nc([C@@H](C)O)cc2cnc(Nc3ccc(CN4CC5CCC(C4)N5C)cn3)nc12` [Compound 1224], the results for the IC50 in assay [1] (setting [4]) and in assay [2] (setting [5]) were < 10 nM and ≥ 100 nM, respectively.
The corresponding values for `CC(C)Nc1nc([C@@H](C)O)cc2cnc(Nc3ccc(CN4CCNCC4)nn3)nc12` [Compound 1225] are < 10 nM and ≥ 100 nM.
`CO[C@H](C)c1cc2cnc(Nc3ccc(N4CCNCC4)nn3)nc2c(NCCCF)n1` [Compound 1226]: the values for the IC50 in assay [1] (setting [4]) and in assay [2] (setting [5]) were < 10 nM and ≥ 100 nM, respectively.
Consider `CO[C@H](C)c1cc2cnc(Nc3ccc(CN4CCNCC4)cn3)nc2c(NCCCF)n1` [Compound 1227], for which the values for the IC50 in assay [1] (setting [4]) and in assay [2] (setting [5]) were < 10 nM and ≥ 100 nM, respectively.
As to `CC(C)Nc1nc([C@@H](C)O)cc2cnc(Nc3ccc(N(C)CCN(C)C)cn3)nc12` [Compound 1228], the IC50 in assay [1] (setting [4]) was < 10 nM; in assay [2] (setting [5]) it was ≥ 100 nM.
In the case of `CC(C)Nc1nc(C2CCOC2)cc2cnc(Nc3ccc4c(n3)CCN(CCO)C4)nc12` (centres unmarked) [Compound 1229], the IC50 in assay [1] (setting [4]) was < 10 nM; in assay [2] (setting [5]), ≥ 100 nM.
In the case of `CC(C)Nc1nc(C2CCOC2)cc2cnc(Nc3ccc4c(n3)CCN(CCN(C)C)C4)nc12` (centres unmarked) [Compound 1230], the IC50 is < 10 nM in assay [1] (setting [4]) and ≥ 100 nM in assay [2] (setting [5]).
With `CC(C)Nc1nc(C2CCOC2)cc2cnc(Nc3ccc4c(n3)CCN(C(=O)CO)C4)nc12` (centres unmarked) [Compound 1231], the IC50 is < 10 nM in assay [1] (setting [4]) and ≥ 100 nM in assay [2] (setting [5]).
Turning to `CC(C)Nc1nc(C2CCOC2)cc2cnc(Nc3ccc4c(n3)CCN(CC(=O)O)C4)nc12` (centres unmarked) [Compound 1232], the IC50 in assay [1] (setting [4]) was < 10 nM; in assay [2] (setting [5]) it was ≥ 100 nM.
